Experimental data published in patent publication US5763438A, “2-acylaminopropanol compound and medical composition” (Seikagaku Corporation, priority 1994, dated 1998).
Where two headings read alike, the source gives them in different places.

Assays:
[1] = test system: A/PR/8/34 strain influenza virus; assay: microbe, parasite or virus in culture; assay type: cell-based, influenza virus A/PR/8/34; details: for inhibition at 10 µM: unidentified influenza virus, PR/8, MDCK, 72 h, read-out: Virus growth inhibition (%)
[2] = Cytotoxicity to uninfected MDCK cells (MTT method); details: dog, mdck cells
Protocol: (§1) Further, in order to evaluate the cytotoxicities to the MDCK cells of the compounds of the present invention, these compounds at the same concentration were added to cells which were not infected with virus, and the survival rate after carrying out culture in the same manner was examined by the MTT method, which is also shown in Table 1.

[3] = test system: A/PR/8/34 strain influenza virus; assay: microbe, parasite or virus in culture; assay type: cell-based, influenza virus A/PR/8/34; details: for EC50: unidentified influenza virus, PR/8, MDCK, 72 h, read-out: ED50 (concentration at which the cytopathic effect derived from virus was reduced by 50% as compared with a control)
B16 melanoma cells = assay: Glycolipid biosynthesis-accelerating action in B16 melanoma cells (uptake of 14C-galactose into GSL fraction); assay type: cell-based; details: for Uptake of 14C-galactose into GSL fraction: 24 hours, control 6,100; for Acceleration of biosynthesis of glycolipids including ganglioside (in words): Table 2
Protocol: B16 melanoma cells derived from neuroectoderm were put into a culture plate with 12 wells in an amount of 2×10^5 cells/well and cultured for 24 hours in Dulbecco modified Eagle's media containing 10% bovine fetal serum. Thereafter, the media were exchanged with the same culture broths containing 2-acylaminopropanol compounds shown in Table 2, and ^14 C-galactose was added thereto. After 24 hours, the media were removed, the cells were washed with 1 ml of a phosphate buffer containing 0.02% EDTA, 1 ml of 0.25 % trypsin was added, and the mixtures were left to stand at 37° C. for 5 minutes. The cells were recovered by using the same culture broths and washed with a phosphate buffer, and then masses of the cells were obtained. 4 ml of methanol and chloroform were added successively to the masses of the cells to extract all GSL, followed by evaporation to dryness. Next, after this all GSL was suspended in 1 ml of water, the suspensions were dialyzed to water for 2 days to completely remove low molecules such as ^14 C-galactose, etc. The radioactivities of the GSL fractions thus obtained were measured by a liquid scintillation counter. A control is a result of carrying out an experiment in the same manner by exchanging the medium with the same amount of a culture broth not containing the compound of the present invention.

virus = details: Seikagaku vol. 65(8), p. 695 (1993); cited from earlier work
[4] = J. Lipid Res., Vol. 32, 713-722 (1991); cited from earlier work
MDCK cells = assay: Cytotoxicity to uninfected MDCK cells (MTT method); details: 10 μM; MDCK cells
Protocol: as §1

[5] = Mus musculus, B16, 24 h, 10 μM, control 100, read-out: Glycolipid biosynthesis acceleration (%)
[6] = 10 μM, MDCK cells, 3 days at 37° C., control 80.0

Structure (SMILES)	inhibition at 10 µM [1]	viability at 72 h, 10 µM [2]	Uptake of 14C-galactose into GSL fraction (B16 melanoma cells; 10 μM)	activity at 10 µM (B16 melanoma cells; [5])	Acceleration of biosynthesis of glycolipids including ganglioside (in words) (B16 melanoma cells)	Cytopathic effect (%) [3, 6]	EC50 [3]	other results
CCCCCCCCCC(=O)N[C@H](CN1CCOCC1)[C@H](O)c1ccccc1 [D-threo-PDMP, reference compound]	97.1%	60 to 80%	–	–	–	–	–	Cytopathic effect (%) [3]: 44.8%
CCCCCCCCCC(=O)N[C@@H](CN1CCN(C)CC1)[C@@H](O)c1ccccc1 [Compound 2]	–	–	10,300 cpm/mg protein	169%	significantly accelerate biosynthesis of glycolipids including ganglioside	–	–	–
CCCCCCCCCC(=O)N[C@@H](CN1CCC(O)C1)[C@@H](O)c1ccccc1 (some centres unmarked) [Compound 3]	–	–	9,380 cpm/mg protein	161%	significantly accelerate biosynthesis of glycolipids including ganglioside	–	–	–
CCCCCCCCCC(=O)NC(CN1CCCCC1CO)C(O)c1ccccc1 (mixture of isomers) [drawing 11 (Mixture of isomers), 2-decanoylamino-3-(2-(hydroxymethyl)-piperidino)-1-phenyl-1-propanol]	99.7%	80 to 100%	–	–	–	3.1%	1.5 µM	–
CCCCCCCCCC(=O)N[C@@H](CN1CCC(O)CC1)[C@H](O)c1ccccc1 [drawing 13 (D-erythro)]	–	–	11,470 cpm/mg protein	188%	significantly accelerate biosynthesis of glycolipids including ganglioside	–	–	–
CCCCCCCCCC(=O)N[C@@H](CNC1CCC(O)CC1)[C@@H](O)c1ccccc1 (some centres unmarked) [Compound 4]	–	–	–	–	significantly accelerate biosynthesis of glycolipids including ganglioside	–	–	Uptake of 14C-galactose into GSL fraction (B16 melanoma cells; 5 μM): 9,740 cpm/mg protein; activity at 5 µM (B16 melanoma cells; Mus musculus, B16, 24 h, 5 μM, control 100, read-out: Glycolipid biosynthesis acceleration (%)): 160%
CCCCCCCCCC(=O)N[C@@H](CN(CC)CC)[C@H](O)c1ccccc1 (relative stereo) [drawing 10 (DL-erythro), 2-decanoylamino-3-diethylamino-1-phenyl-1-propanol]	88.5%	100%	–	–	–	9.9%	1.5 µM	–
CCCCCCCCCC(=O)N[C@@H](CN1CCCCC1)[C@H](O)c1ccccc1 (relative stereo) [drawing 8 (DL-erythro), 2-decanoylamino-1-phenyl-3-piperidino-1-propanol]	99.6%	80 to 100%	–	–	–	7.8%	–	–
CCCCCCCCCC(=O)N[C@@H](CN1CCC(O)CC1)[C@@H](O)c1ccccc1 [drawing 13 (L-threo)]	–	–	9,670 cpm/mg protein	159%	significantly accelerate biosynthesis of glycolipids including ganglioside	–	–	–
CCCCCCCCCC(=O)NC(CN1CCOCC1)C(O)c1ccccc1 (centres unmarked) [PDMP, 1-phenyl-2-decanoylamino-3-morpholino-1-propanol]	–	–	–	–	–	–	–	Antiviral activity (in words) (virus): has an antiviral activity; Passing a blood-brain barrier (in words) [4]: can pass a blood-brain barrier
CCCCCCCCCC(=O)N[C@H](CN1CCC(O)CC1)[C@H](O)c1ccccc1 (relative stereo) [drawing 9 (DL-threo), 2-decanoylamino-3-(4-hydroxypiperidino)-1-phenyl-1-propanol]	87.3%	100%	–	–	–	14.2%	5.4 µM	–
CCCCCCCCCC(=O)N[C@H](CN1CCCCC1)[C@H](O)c1ccccc1 (relative stereo) [drawing 8 (DL-threo), 2-decanoylamino-1-phenyl-3-piperidino-1-propanol]	93.9%	80 to 100%	–	–	–	40.0%	–	–
CCCCCCCCCC(=O)N[C@@H](CN1CCC(O)CC1)[C@H](O)c1ccccc1 (relative stereo) [drawing 9 (DL-erythro), 2-decanoylamino-3-(4-hydroxypiperidino)-1-phenyl-1-propanol]	100%	100%	–	–	–	–	5 µM	Suppression of growth of influenza virus (in words) [1]: completely suppressed growth of influenza virus; Cytotoxicity (in words) (MDCK cells): cytotoxicity at this concentration was not observed at all; Cytopathic effect (%) [3]: 0%
